The record followed here is ChEMBL document CHEMBL5390283, “Discovery of PVD-06 as a Subtype-Selective and Efficient PTPN2 Degrader” (J Med Chem, 2023).

Assay [1] addresses T1, von Hippel-Lindau disease tumor suppressor/Tyrosine-protein phosphatase non-receptor type 2 (Homo sapiens, UniProt P17706+P40337). Kind of assay: PROTAC activity at VHL/PTPN2 in human Jurkat cells assessed as induction of PTPN2 degradation at 100 nM by Western blot analysis relative to control. The assay is classed as cell-based. (Immunoblotting shows a protein as a band on a membrane.)
Target sequence in this assay (P17706 whole entry, looked up): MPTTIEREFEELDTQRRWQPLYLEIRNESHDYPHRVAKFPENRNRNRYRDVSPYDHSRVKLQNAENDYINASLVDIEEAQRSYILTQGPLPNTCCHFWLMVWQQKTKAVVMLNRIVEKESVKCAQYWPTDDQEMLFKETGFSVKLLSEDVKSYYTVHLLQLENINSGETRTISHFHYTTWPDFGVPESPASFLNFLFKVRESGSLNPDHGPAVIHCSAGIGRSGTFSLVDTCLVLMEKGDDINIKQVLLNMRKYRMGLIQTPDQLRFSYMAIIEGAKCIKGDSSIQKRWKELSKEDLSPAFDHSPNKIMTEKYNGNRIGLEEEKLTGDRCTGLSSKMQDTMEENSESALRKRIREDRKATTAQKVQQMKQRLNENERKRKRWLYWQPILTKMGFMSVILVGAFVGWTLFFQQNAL
Target sequence in this assay (P40337 whole entry, looked up): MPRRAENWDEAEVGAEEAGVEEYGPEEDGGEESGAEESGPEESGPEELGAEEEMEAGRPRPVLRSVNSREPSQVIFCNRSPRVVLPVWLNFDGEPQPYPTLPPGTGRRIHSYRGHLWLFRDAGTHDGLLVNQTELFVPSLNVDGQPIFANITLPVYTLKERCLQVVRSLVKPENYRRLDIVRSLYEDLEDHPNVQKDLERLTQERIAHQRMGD

Assay [2] deals with T1, von Hippel-Lindau disease tumor suppressor/Tyrosine-protein phosphatase non-receptor type 2. Put plainly: PROTAC activity at VHL/PTPN2 in human Jurkat cells assessed as induction of PTPN2 degradation at 10 uM by Western blot analysis relative to control. It is filed as cell-based.
Target sequence in this assay (P17706 whole entry, looked up): as the sequence (P17706 whole entry, looked up) above
Target sequence in this assay (P40337 whole entry, looked up): as the sequence (P40337 whole entry, looked up) above
Assay [3] shares this target. Put plainly: PROTAC activity at VHL/PTPN2 in human Jurkat cells assessed as induction of PTPN2 degradation at 1 uM by Western blot analysis relative to control. The assay is classed as cell-based.
Target sequence in this assay (P17706 whole entry, looked up): as the sequence (P17706 whole entry, looked up) above
Target sequence in this assay (P40337 whole entry, looked up): as the sequence (P40337 whole entry, looked up) above
Assay [4] has the same target. Put plainly: PROTAC activity at VHL/PTPN2 in human Jurkat cells assessed as induction of PTPN2 degradation by Western blot analysis. The assay is classed as cell-based.
Target sequence in this assay (P17706 whole entry): as the sequence (P17706 whole entry, looked up) above
Target sequence in this assay (P40337 whole entry): as the sequence (P40337 whole entry, looked up) above
For assay [5], the target named is von Hippel-Lindau disease tumor suppressor/Tyrosine-protein phosphatase non-receptor type 1 (Homo sapiens, UniProt P18031+P40337). Put plainly: PROTAC activity at VHL/PTP1B in human Jurkat cells assessed as induction of PTP1B degradation by Western blot analysis. The assay is classed as cell-based.
Chain of von Hippel-Lindau disease tumor suppressor/Tyrosine-protein phosphatase non-receptor type 1 (P18031 whole entry): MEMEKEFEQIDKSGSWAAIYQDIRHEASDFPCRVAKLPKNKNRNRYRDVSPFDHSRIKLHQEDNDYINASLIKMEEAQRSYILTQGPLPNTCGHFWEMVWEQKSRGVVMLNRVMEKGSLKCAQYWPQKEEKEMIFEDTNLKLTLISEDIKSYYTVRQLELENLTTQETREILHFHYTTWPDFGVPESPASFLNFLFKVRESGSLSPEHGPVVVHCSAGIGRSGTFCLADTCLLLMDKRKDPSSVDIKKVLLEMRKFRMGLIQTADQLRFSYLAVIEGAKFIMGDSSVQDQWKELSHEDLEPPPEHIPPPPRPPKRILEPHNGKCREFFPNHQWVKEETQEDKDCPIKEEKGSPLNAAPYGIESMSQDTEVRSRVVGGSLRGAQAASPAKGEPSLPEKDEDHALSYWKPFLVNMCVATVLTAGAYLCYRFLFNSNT
Chain of von Hippel-Lindau disease tumor suppressor/Tyrosine-protein phosphatase non-receptor type 1 (P40337 whole entry): as the sequence (P40337 whole entry, looked up) above
For assay [6], the target named is Protein cereblon/Tyrosine-protein phosphatase non-receptor type 2 (Homo sapiens) (UniProt P17706+Q96SW2). Put plainly: PROTAC activity at CRBN/PTPN2 in human Jurkat cells assessed as induction of PTPN2 degradation at 0.01 to 10 uM by Western blot analysis. It is filed as cell-based. Conditions: dose 0.01-10 µM.
Chain of Protein cereblon/Tyrosine-protein phosphatase non-receptor type 2 (Homo sapiens) (P17706 whole entry, looked up): as the sequence (P17706 whole entry, looked up) above
Chain of Protein cereblon/Tyrosine-protein phosphatase non-receptor type 2 (Homo sapiens) (Q96SW2 whole entry, looked up): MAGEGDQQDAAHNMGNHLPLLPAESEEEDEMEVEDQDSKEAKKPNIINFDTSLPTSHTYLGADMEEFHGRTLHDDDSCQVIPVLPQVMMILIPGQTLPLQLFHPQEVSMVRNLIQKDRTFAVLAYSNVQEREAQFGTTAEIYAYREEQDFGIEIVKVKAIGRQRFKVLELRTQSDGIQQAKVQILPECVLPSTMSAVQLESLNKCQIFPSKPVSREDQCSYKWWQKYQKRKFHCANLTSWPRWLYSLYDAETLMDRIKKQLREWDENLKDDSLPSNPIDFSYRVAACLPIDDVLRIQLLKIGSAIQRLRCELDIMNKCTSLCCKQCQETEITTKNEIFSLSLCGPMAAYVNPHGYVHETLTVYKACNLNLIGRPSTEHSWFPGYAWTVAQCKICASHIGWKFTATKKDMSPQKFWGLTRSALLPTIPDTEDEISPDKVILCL
Assay [7] addresses T1, von Hippel-Lindau disease tumor suppressor/Tyrosine-protein phosphatase non-receptor type 2. Kind of assay: PROTAC activity at VHL/PTPN2 in human Jurkat cells assessed as residual activity of PTPN2 level at 1 uM by Western blot analysis relative to control. The assay is classed as cell-based.
Target sequence in this assay (P17706 whole entry, looked up): as the sequence (P17706 whole entry, looked up) above
Target sequence in this assay (P40337 whole entry, looked up): as the sequence (P40337 whole entry, looked up) above
The test system of a further assay is Splenocyte. Kind of assay: Induction of cell proliferation in anti-CD3/CD28-stimulated mouse splenocytes at 0.625 to 10 uM incubated for 3 days by CFSE dye based flow cytometry. The assay is classed as functional. Conditions: dose 0.625-10 µM, time 3.0 day. Background: In flow cytometry, cells or beads pass a laser one at a time.

The source made the active and inactive calls. The calls are words filed in the database; no cut-off is given here.

Turning to `Cc1ncsc1-c1ccc([C@H](C)NC(=O)[C@@H]2C[C@@H](O)CN2C(=O)[C@@H](NC(=O)CCCCNC(=O)Cn2cc(-c3ccc4cc(O)c(N5CC(=O)NS5(=O)=O)c(F)c4c3)cn2)C(C)(C)C)cc1`, the Activity is 29% in assay [1], 92% in assay [2] and 77% in assay [3].

What is called EC50 is the concentration needed to bring the measured effect to its halfway point. As for `Cc1ncsc1-c1ccc([C@H](C)NC(=O)[C@@H]2C[C@@H](O)CN2C(=O)[C@@H](NC(=O)CCCCCCCNC(=O)Cn2cc(-c3ccc4cc(O)c(N5CC(=O)NS5(=O)=O)c(F)c4c3)cn2)C(C)(C)C)cc1`, the EC50 is 77 nM in assay [4] and 758 nM in assay [5]. In addition, the Activity is 37% in assay [1], 99% in assay [2] and 84% in assay [3].

Take `Cc1ncsc1-c1ccc([C@H](C)NC(=O)[C@@H]2C[C@@H](O)CN2C(=O)[C@@H](NC(=O)CCCCCCCCCCNC(=O)Cn2cc(-c3ccc4cc(O)c(N5CC(=O)NS5(=O)=O)c(F)c4c3)cn2)C(C)(C)C)cc1`: the results for the EC50 in assay [4] and in assay [5] were 571 nM and 2000 nM, respectively. The Activity turned out to be 4% in assay [1], 98% in assay [2] and 71% in assay [3].

In the case of `Cn1c(=O)n(C2CCC(=O)NC2=O)c2ccc(C3CCN(CCn4cc(-c5ccc6cc(O)c(N7CC(=O)NS7(=O)=O)c(F)c6c5)cn4)CC3)cc21` (centres undefined), the outcome in assay [6] was Active.

For the compound `Cc1ncsc1-c1ccc([C@H](C)NC(=O)[C@@H]2C[C@@H](O)CN2C(=O)[C@@H](NC(=O)CCNC2CCN(C(=O)Cn3cc(-c4ccc5cc(O)c(N6CC(=O)NS6(=O)=O)c(F)c5c4)cn3)CC2)C(C)(C)C)cc1`, the Activity in assay [1] was determined as 15%; in assay [2] it was 85%; in assay [3], 35%.

With `O=C(Cn1cc(-c2ccc3cc(O)c(N4CC(=O)NS4(=O)=O)c(F)c3c2)cn1)NCCCNc1cccc2c1C(=O)N(C1CCC(=O)NC1=O)C2=O` (centres undefined), the result in assay [6] was Active.

Turning to `Cc1ncsc1-c1ccc([C@H](C)NC(=O)[C@@H]2C[C@@H](O)CN2C(=O)[C@@H](NC(=O)CCCNC(=O)Cn2cc(-c3ccc4cc(O)c(N5CC(=O)NS5(=O)=O)c(F)c4c3)cn2)C(C)(C)C)cc1`, the Activity stood at 26% in assay [1], 98% in assay [2] and 81% in assay [3].

Regarding `Cc1ncsc1-c1ccc([C@H](C)NC(=O)[C@@H]2C[C@@H](O)CN2C(=O)[C@@H](NC(=O)Cn2cc(-c3ccc4cc(O)c(N5CC(=O)NS5(=O)=O)c(F)c4c3)cn2)C(C)(C)C)cc1`, the Activity in assay [1] is -3%; in assay [2], -53%; in assay [3] it was -8%.

Regarding `Cc1ncsc1-c1ccc([C@H](C)NC(=O)[C@@H]2C[C@@H](O)CN2C(=O)[C@@H](NC(=O)CCCCCCNC(=O)Cn2cc(-c3ccc4cc(O)c(N5CC(=O)NS5(=O)=O)c(F)c4c3)cn2)C(C)(C)C)cc1`, the figures for the EC50 in assay [4] and in assay [5] were 94 nM and 142 nM, respectively. The Activity was 40% in assay [1], 99% in assay [2] and 84% in assay [3].

Consider `Cn1c(=O)n(C2CCC(=O)NC2=O)c2ccc(C3CCN(C(=O)Cn4cc(-c5ccc6cc(O)c(N7CC(=O)NS7(=O)=O)c(F)c6c5)cn4)CC3)cc21` (centres undefined), for which the outcome in assay [6] was Active.

On to `Cc1ncsc1-c1ccc([C@H](C)NC(=O)[C@@H]2C[C@@H](O)CN2C(=O)[C@@H](NC(=O)CCNC(=O)Cn2cc(-c3ccc4cc(O)c(N5CC(=O)NS5(=O)=O)c(F)c4c3)cn2)C(C)(C)C)cc1`, for which the values for the Activity in assay [1], in assay [2] and in assay [3] were -1%, 96% and 57%, respectively.

As to `Cc1ncsc1-c1ccc([C@H](C)NC(=O)[C@@H]2C[C@@H](O)CN2C(=O)[C@@H](NC(=O)CNC2CCN(C(=O)Cn3cc(-c4ccc5cc(O)c(N6CC(=O)NS6(=O)=O)c(F)c5c4)cn3)CC2)C(C)(C)C)cc1`, the Activity in assay [7] is 20%; in assay [1], -17%; in assay [2] it was 99%; in assay [3] it was 72%.

On to `Cc1ncsc1-c1ccc([C@H](C)NC(=O)[C@@H]2C[C@@H](Oc3ccccc3)CN2C(=O)[C@@H](NC(=O)CCCCCNC(=O)Cn2cc(-c3ccc4cc(O)c(N5CC(=O)NS5(=O)=O)c(F)c4c3)cn2)C(C)(C)C)cc1`, for which, in the assay with Splenocyte, the outcome was inactive.

For `Cc1ncsc1-c1ccc([C@H](C)NC(=O)[C@@H]2C[C@@H](O)CN2C(=O)[C@@H](NC(=O)CNC(=O)Cn2cc(-c3ccc4cc(O)c(N5CC(=O)NS5(=O)=O)c(F)c4c3)cn2)C(C)(C)C)cc1`, the figures for the Activity in assay [1], in assay [2] and in assay [3] were -18%, 91% and 33%, respectively.

With `Cc1ncsc1-c1ccc([C@H](C)NC(=O)[C@@H]2C[C@@H](O)CN2C(=O)[C@@H](NC(=O)CCCCCCCCNC(=O)Cn2cc(-c3ccc4cc(O)c(N5CC(=O)NS5(=O)=O)c(F)c4c3)cn2)C(C)(C)C)cc1`, the values for the Activity in assay [1], in assay [2] and in assay [3] were 27%, 94% and 60%, respectively.

`O=C(Cn1cc(-c2ccc3cc(O)c(N4CC(=O)NS4(=O)=O)c(F)c3c2)cn1)NCCCCCNc1cccc2c1C(=O)N(C1CCC(=O)NC1=O)C2=O` (centres undefined): the outcome in assay [6] was Active.

Regarding `O=C(Cn1cc(-c2ccc3cc(O)c(N4CC(=O)NS4(=O)=O)c(F)c3c2)cn1)NCCCCNc1cccc2c1C(=O)N(C1CCC(=O)NC1=O)C2=O` (centres undefined), the outcome in assay [6] was Active.

Consider `Cc1ncsc1-c1ccc([C@H](C)NC(=O)[C@@H]2C[C@@H](O)CN2C(=O)[C@@H](NC(=O)c2cn(CCCNC(=O)Cn3cc(-c4ccc5cc(O)c(N6CC(=O)NS6(=O)=O)c(F)c5c4)cn3)nn2)C(C)(C)C)cc1`, for which the values for the Activity in assay [1], in assay [2] and in assay [3] were -2%, 62% and 2%, respectively.
